How the values were obtained:
Thromboxane-A synthase = target: T1, Thromboxane-A synthase (Homo sapiens, UniProt P24557); assay: biochemical; format: tissue-based, Platelet;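 also: enzyme inhibition assay with PGH2 supplied as substrate; in other assays of this panel Not Active means under 50% inhibition at 10 µM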
T1 sequence (P24557 whole entry): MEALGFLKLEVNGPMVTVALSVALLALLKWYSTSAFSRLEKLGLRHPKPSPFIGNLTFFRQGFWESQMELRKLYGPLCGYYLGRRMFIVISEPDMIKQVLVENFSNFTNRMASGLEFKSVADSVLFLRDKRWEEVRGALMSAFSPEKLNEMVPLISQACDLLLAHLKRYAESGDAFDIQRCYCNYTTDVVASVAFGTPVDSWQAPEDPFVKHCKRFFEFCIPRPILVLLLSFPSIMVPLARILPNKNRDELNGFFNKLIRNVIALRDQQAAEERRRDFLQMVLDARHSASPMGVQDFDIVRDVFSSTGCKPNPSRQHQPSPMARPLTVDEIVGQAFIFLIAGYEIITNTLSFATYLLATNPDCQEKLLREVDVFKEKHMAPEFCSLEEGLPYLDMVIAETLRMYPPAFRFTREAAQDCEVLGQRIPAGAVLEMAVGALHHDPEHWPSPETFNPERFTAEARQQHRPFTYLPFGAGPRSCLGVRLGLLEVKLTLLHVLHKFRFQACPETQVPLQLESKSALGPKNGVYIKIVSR

[1] = target: Prostaglandin G/H synthase 1 (Homo sapiens, UniProt P23219); assay: biochemical; format: tissue-based, Platelet;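 also: inhibition of COX-1 enzyme activity, with arachidonic acid supplied as substrate; in other assays of this panel Not Active means under 50% inhibition at 10 µM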
Chain of Prostaglandin G/H synthase 1 (P23219 whole entry): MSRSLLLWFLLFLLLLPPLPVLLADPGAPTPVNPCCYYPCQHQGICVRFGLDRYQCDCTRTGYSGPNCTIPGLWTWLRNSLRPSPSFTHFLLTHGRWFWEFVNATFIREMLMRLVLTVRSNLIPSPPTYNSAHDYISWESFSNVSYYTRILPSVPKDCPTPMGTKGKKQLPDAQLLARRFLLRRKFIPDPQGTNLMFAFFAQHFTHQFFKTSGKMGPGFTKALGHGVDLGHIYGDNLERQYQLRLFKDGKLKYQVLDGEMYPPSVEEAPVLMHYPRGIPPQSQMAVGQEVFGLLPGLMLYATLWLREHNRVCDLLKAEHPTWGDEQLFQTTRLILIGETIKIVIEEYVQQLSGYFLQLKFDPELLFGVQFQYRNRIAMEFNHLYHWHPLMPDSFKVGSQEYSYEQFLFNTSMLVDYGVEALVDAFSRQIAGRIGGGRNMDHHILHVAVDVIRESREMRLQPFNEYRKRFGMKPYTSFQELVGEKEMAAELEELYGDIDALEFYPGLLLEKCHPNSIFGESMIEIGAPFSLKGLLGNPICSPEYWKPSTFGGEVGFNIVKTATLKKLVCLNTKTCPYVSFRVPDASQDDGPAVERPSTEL

[2] = target: T2, Cysteinyl leukotriene receptor 1 (Homo sapiens, UniProt Q9Y271); format: cell membranes, CHO-K1, Membrane; settings: cho-k1; also: in other assays of this panel Not Active means under 50% inhibition at 10 µM
T2 sequence (Q9Y271 whole entry): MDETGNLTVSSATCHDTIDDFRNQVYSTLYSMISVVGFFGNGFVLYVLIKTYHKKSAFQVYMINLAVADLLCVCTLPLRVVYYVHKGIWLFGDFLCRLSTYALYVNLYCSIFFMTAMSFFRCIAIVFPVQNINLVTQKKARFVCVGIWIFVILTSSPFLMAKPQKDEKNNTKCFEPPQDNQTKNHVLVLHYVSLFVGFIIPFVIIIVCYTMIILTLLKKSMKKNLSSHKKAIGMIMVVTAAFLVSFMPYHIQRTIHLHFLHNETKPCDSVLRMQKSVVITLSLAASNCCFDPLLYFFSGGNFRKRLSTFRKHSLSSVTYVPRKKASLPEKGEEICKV

[3] = DRUGMATRIX: Nicotinic Acetylcholine radioligand binding (ligand: [125I] Epibatidine); format: cell membranes, Membrane; settings: imr-32; Not Active = under 50% inhibition at 10 µM
Interstitial collagenase = target: T3, Interstitial collagenase (Homo sapiens, UniProt P03956); assay: biochemical; format: tissue-based, Rheumatoid synovial fibroblasts;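 also: MMP-1 enzyme inhibition assay using a peptide substrate; in other assays of this panel Not Active means under 50% inhibition at 10 µM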
T3 sequence (P03956 whole entry): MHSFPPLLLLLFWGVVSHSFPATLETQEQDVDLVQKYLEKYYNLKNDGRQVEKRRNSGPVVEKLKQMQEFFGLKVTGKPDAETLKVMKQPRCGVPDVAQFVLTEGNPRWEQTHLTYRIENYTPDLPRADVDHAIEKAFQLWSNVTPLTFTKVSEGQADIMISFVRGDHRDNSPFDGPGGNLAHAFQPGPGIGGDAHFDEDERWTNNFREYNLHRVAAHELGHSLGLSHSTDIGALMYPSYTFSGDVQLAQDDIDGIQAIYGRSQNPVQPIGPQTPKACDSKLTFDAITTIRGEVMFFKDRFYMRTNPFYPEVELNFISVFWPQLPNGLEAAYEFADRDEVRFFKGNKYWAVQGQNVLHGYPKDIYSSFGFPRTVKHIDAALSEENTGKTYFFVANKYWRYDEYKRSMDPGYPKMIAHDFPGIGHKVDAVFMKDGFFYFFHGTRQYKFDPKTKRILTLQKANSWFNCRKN

Adenosine receptor A3 = target: T4, Adenosine receptor A3 (Homo sapiens, UniProt P0DMS8); format: cell membranes, CHO-K1, Membrane
T4 sequence (P0DMS8 whole entry): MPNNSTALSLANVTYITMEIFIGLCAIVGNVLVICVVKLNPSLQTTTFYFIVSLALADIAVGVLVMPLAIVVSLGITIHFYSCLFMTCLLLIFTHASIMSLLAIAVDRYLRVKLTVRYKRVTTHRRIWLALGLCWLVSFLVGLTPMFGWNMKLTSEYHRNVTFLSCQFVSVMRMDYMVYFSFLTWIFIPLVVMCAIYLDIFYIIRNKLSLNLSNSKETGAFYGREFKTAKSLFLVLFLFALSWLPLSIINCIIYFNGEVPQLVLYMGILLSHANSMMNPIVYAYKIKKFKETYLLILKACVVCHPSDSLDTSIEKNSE

| Molecule | IC50 (Thromboxane-A synthase; platelet) | IC50 ([1]; platelet) | IC50 [2] | IC50 [3] | Ki [3] | IC50 (Interstitial collagenase) | IC50 (Adenosine receptor A3; cho-k1) | IC50 (Thromboxane-A synthase; read-out: IC50) [µM] | IC50 ([1]; read-out: IC50) [µM] | Ki (Thromboxane-A synthase; platelet) | Ki ([1]; platelet) | Ki [2] | Ki (Interstitial collagenase) | Ki (Adenosine receptor A3; cho-k1) | IC50 (Adenosine receptor A3; read-out: IC50) [µM] | Ki (Adenosine receptor A3; read-out: Ki) [µM] |
| --- | --- | --- | --- | --- | --- | --- | --- | --- | --- | --- | --- | --- | --- | --- | --- | --- |
| O=C(O)COC(=O)Cc1ccccc1Nc1c(Cl)cccc1Cl [ACECLOFENAC] | Not Active | Not Active | Not Active | Not Active | Not Active | Not Active | Not Active |  |  |  |  |  |  |  |  |  |
| C#C[C@]1(O)CC[C@H]2[C@@H]3CCC4=CC(=O)CC[C@@H]4[C@H]3CC[C@@]21C [NORETHINDRONE] | Not Active | Not Active | Not Active | Not Active | Not Active | Not Active | Not Active |  |  |  |  |  |  |  |  |  |
| CC(C)(C#N)c1cc(Cn2cncn2)cc(C(C)(C)C#N)c1 [ANASTROZOLE] | Not Active | Not Active | Not Active | Not Active | Not Active | Not Active | Not Active |  |  |  |  |  |  |  |  |  |
| Cc1cc(C(C)(C)C)c(O)c(C)c1CC1=NCCN1 [OXYMETAZOLINE] | Not Active | Not Active | Not Active | Not Active | Not Active | Not Active | Not Active |  |  |  |  |  |  |  |  |  |
| O=C(Nc1ccc(Cl)c(Cl)c1)c1cc(Cl)cc(Cl)c1O [3,3',4',5-TETRACHLOROSALICYLANILIDE] |  |  | Not Active | Not Active | Not Active | Not Active | Not Active | 4.93 | 0.666 |  |  |  |  |  |  |  |
| O=C(O)CO [GLYCOLIC ACID] | Not Active | Not Active | Not Active | Not Active | Not Active | Not Active | Not Active |  |  |  |  |  |  |  |  |  |
| COC(=O)C[C@](O)(CCC(C)(C)O)C(=O)O[C@@H]1C(OC)=C[C@]23CCCN2CCc2cc4c(cc2[C@H]13)OCO4 [HARRINGTONINE] | Not Active | Not Active | Not Active | Not Active | Not Active | Not Active | Not Active |  |  |  |  |  |  |  |  |  |
| CC(C)(c1ccc(O)cc1)c1ccc(O)cc1 [BISPHENOL A] | Not Active | Not Active | Not Active | Not Active | Not Active | Not Active | Not Active |  |  |  |  |  |  |  |  |  |
| C=CCO [ALLYL ALCOHOL] | Not Active | Not Active | Not Active | Not Active | Not Active | Not Active | Not Active |  |  |  |  |  |  |  |  |  |
| C[C@]12CC[C@@H](O)C[C@@H]1CC[C@@H]1[C@@H]2CC[C@]2(C)C(=O)CC[C@@H]12 [ANDROSTERONE] | Not Active | Not Active | Not Active | Not Active | Not Active | Not Active | Not Active |  |  |  |  |  |  |  |  |  |
| COc1ccc(Cl)cc1C(=O)NCCc1ccc(S(=O)(=O)NC(=O)NC2CCCCC2)cc1 [GLYBURIDE] | Not Active | Not Active | Not Active | Not Active | Not Active | Not Active | Not Active |  |  |  |  |  |  |  |  |  |
| CC(CN1c2ccccc2Sc2ccccc21)N(C)C (stereo not given) [PROMETHAZINE] | Not Active | Not Active | Not Active | Not Active | Not Active | Not Active | Not Active |  |  |  |  |  |  |  |  |  |
| C[N+](C)(C)CCOP(=O)([O-])OC[C@H](O)CO | Not Active | Not Active | Not Active | Not Active | Not Active | Not Active | Not Active |  |  |  |  |  |  |  |  |  |
| NCC(CC(=O)O)c1ccc(Cl)cc1 (stereo not given) [BACLOFEN] | Not Active | Not Active | Not Active | Not Active | Not Active | Not Active | Not Active |  |  |  |  |  |  |  |  |  |
| CC12CCC(CC1=O)C2(C)C (stereo not given) [CAMPHOR] | Not Active | Not Active | Not Active | Not Active | Not Active | Not Active | Not Active |  |  |  |  |  |  |  |  |  |
| POVIDONE | Not Active | Not Active | Not Active | Not Active | Not Active | Not Active | Not Active |  |  | Not Active | Not Active | Not Active | Not Active | Not Active |  |  |
| CN(Cc1cc(Br)cc(Br)c1N)C1CCCCC1 [BROMHEXINE] | Not Active | Not Active | Not Active | Not Active | Not Active | Not Active | Not Active |  |  |  |  |  |  |  |  |  |
| Cc1ccnc2c1NC(=O)c1cccnc1N2C1CC1 [NEVIRAPINE] | Not Active | Not Active | Not Active | Not Active | Not Active | Not Active | Not Active |  |  |  |  |  |  |  |  |  |
| CCN1CCN(C(=O)N[C@@H](C(=O)N[C@@H]2C(=O)N3[C@@H]2SC(C)(C)[C@@H]3C(=O)O)c2ccccc2)C(=O)C1=O [PIPERACILLIN] | Not Active | Not Active | Not Active | Not Active | Not Active | Not Active | Not Active |  |  |  |  |  |  |  |  |  |
| O=C(O)c1ccccc1 [BENZOIC ACID] | Not Active | Not Active | Not Active | Not Active | Not Active | Not Active | Not Active |  |  |  |  |  |  |  |  |  |
| CC[C@H]1OC(=O)[C@H](C)[C@@H](O[C@H]2C[C@@](C)(OC)[C@@H](O)[C@H](C)O2)[C@H](C)[C@@H](O[C@@H]2O[C@H](C)C[C@H](N(C)C)[C@H]2O)[C@](C)(O)C[C@@H](C)C(=O)[C@H](C)[C@@H](O)[C@]1(C)O [ERYTHROMYCIN] | Not Active | Not Active | Not Active | Not Active | Not Active | Not Active | Not Active |  |  |  |  |  |  |  |  |  |
| c1ccc2c(c1)Nc1ccccc1S2 [PHENOTHIAZINE] | Not Active |  | Not Active | Not Active | Not Active | Not Active |  |  | 0.196 |  |  |  |  |  | 25.6 | 14.5 |
| CHROMIC CHLORIDE | Not Active | Not Active | Not Active | Not Active | Not Active | Not Active | Not Active |  |  | Not Active | Not Active | Not Active | Not Active | Not Active |  |  |
| Cl.NC[C@H]1CC[C@H](C(=O)Oc2ccc(CCC(=O)O)cc2)CC1 [CETRAXATE HYDROCHLORIDE] | Not Active | Not Active | Not Active | Not Active | Not Active | Not Active | Not Active |  |  |  |  |  |  |  |  |  |
| O=c1[nH]c2ccccc2c2ccccc12 | Not Active | Not Active | Not Active | Not Active | Not Active | Not Active | Not Active |  |  |  |  |  |  |  |  |  |
| C[C@H](C(=O)O)c1ccc2oc(-c3ccc(F)cc3)nc2c1 [FLUNOXAPROFEN] | Not Active | Not Active | Not Active | Not Active | Not Active | Not Active | Not Active |  |  |  |  |  |  |  |  |  |
| O=C(O)CNCP(=O)(O)O [GLYPHOSATE] | Not Active | Not Active | Not Active | Not Active | Not Active | Not Active | Not Active |  |  |  |  |  |  |  |  |  |

From ChEMBL document CHEMBL1909046, “DrugMatrix in vitro pharmacology data”
